Reference: US12673975B2, “Cyclic peptide, cell scaffold material, cell separating material, and medium” (FUJIFILM Corporation, priority 2019, dated 2026)
Read-outs that look alike come from different tables or passages of the source. Starred links: 1 amine or outer side, 2 acyl side, 3 side chain; linkers in the order of their positions; H or OH if unused. Positions of bridges follow the written chain, without caps; N, C: chain ends. Non-standard residues stand in square brackets, D forms with d. Residues, ends and D or L forms follow the SMILES beside them. Pen = CC(C)(S)[C@H](N)C(=O)O; hCys = N[C@@H](CCS)C(=O)O; Dab = NCC[C@H](N)C(=O)O; Dap = NC[C@H](N)C(=O)O; X1 = O=C(C[*:2])[*:1]; X2 = O=C(C[*:1])[*:2]

How the values were obtained:
[1] = Evaluation of molecule stability (alkali treatment, residual rate by LC/MS); type: physicochemical; conditions: for Stability (molecule stability, residual rate of the cyclic peptide rank): alkali treatment, residual rate by LC/MS; for Performance evaluation: Stability (residual rate of cyclic peptide after alkali treatment): 500 μM peptide aqueous solution plus equivalent of 1 M sodium hydroxide, 15° C., 3 hours, LC/MS peak area
Procedure, shortened: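 500 μM aqueous cyclic peptide mixed with an equal volume of 1 M NaOH and held 3 h at 15 °C. Residual rate is total LC/MS peak area after treatment relative to untreated (100%), using a C18 column, pH 3 ammonium formate/acetonitrile gradient, 45 °C, ESI±.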

[2] = biological target: human integrin αvβ5 (Homo sapiens, UniProt P06756+P18084); experiment: Evaluation of integrin binding property (surface plasmon resonance, Biacore 3000, immobilized cyclic peptide)
Chain of human integrin αvβ5 (P06756 31-1048): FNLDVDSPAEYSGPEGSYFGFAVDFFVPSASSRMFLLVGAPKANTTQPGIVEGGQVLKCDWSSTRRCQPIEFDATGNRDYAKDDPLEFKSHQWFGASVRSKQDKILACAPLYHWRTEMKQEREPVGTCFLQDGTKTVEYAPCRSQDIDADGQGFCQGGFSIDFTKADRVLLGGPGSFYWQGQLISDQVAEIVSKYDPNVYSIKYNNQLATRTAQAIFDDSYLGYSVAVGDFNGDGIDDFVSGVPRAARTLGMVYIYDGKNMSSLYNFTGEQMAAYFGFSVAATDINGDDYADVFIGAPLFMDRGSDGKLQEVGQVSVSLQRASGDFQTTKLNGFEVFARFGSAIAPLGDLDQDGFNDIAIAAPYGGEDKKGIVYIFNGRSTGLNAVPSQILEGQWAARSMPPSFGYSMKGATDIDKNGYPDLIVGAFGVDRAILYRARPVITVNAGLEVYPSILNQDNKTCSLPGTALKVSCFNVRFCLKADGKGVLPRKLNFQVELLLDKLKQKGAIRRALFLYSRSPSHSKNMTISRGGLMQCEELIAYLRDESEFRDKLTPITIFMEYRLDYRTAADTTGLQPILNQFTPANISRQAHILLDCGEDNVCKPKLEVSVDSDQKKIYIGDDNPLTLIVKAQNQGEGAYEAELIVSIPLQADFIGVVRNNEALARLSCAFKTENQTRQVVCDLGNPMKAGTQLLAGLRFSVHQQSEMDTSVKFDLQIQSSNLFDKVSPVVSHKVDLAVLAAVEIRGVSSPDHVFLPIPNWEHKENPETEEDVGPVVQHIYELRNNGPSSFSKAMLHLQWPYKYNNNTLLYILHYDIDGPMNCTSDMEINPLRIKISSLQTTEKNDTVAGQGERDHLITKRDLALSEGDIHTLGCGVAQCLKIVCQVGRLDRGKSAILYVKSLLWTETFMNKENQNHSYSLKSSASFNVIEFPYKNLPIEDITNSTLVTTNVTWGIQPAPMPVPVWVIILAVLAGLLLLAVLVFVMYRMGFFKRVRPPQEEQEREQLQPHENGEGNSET
Chain of human integrin αvβ5 (P18084 24-799): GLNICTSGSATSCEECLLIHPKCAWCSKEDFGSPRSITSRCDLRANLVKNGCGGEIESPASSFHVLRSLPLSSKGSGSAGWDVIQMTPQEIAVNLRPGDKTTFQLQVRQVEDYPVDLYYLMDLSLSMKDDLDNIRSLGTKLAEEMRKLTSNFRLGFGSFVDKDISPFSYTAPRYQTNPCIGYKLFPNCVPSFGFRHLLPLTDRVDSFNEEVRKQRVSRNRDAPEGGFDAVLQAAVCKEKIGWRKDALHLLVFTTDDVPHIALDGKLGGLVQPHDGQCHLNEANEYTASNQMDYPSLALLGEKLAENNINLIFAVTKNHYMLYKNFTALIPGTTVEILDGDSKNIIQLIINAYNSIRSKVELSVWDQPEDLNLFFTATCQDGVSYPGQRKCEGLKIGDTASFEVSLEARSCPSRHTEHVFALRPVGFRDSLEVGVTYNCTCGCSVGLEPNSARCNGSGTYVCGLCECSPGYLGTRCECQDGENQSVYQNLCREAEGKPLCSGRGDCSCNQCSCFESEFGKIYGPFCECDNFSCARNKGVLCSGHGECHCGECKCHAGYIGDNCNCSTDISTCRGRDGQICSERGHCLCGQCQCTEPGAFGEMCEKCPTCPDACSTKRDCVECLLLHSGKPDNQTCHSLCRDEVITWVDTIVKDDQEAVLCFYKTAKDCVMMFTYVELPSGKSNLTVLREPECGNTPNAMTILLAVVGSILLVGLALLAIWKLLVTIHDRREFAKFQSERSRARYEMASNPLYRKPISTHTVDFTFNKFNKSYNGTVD
Procedure, shortened: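 SPR with cyclic peptide amine-coupled via EDC/NHS to a CM5 chip, blank channel as reference. Integrin αvβ5 at 30, 100, 300 and 1,000 nM injected 10 min at 25 °C in HEPES buffer pH 7.4 with 5 mM MgCl2, 30 min buffer flow, EDTA regeneration; Kd from reference-subtracted signals, graded by category.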

[3] = surface plasmon resonance, immobilized cyclic peptide, human integrin αvβ5, read-out: Binding activity (integrin binding property, dissociation constant rank)
[4] = SPR, 25° C., HEPES buffer with 5 mM magnesium chloride, integrin 30-1,000 nM, read-out: Performance evaluation: Binding activity (dissociation constant between the cyclic peptide and human integrin αvβ5)

| Kd [2, 3] [nM] | Kd [2, 4] [nM] | Compound | Stability (molecule stability, residual rate of the cyclic peptide rank) [1] | Performance evaluation: Stability (residual rate of cyclic peptide after alkali treatment) [1] |
| --- | --- | --- | --- | --- |
| – | < 50 | CC[C@H](C)[C@@H]1NC(=O)[C@@H](NC(=O)CNC(=O)[C@H](CCCCN)NC(=O)[C@H](CCCCN)NC(=O)[C@@H](N)CCCCN)CCSCC(=O)NCC[C@@H](C(=O)N[C@@H](C)C(=O)O)NC(=O)[C@H](CCCNC(=N)N)NC(=O)[C@H](Cc2ccccc2)NC(=O)[C@H](CC(N)=O)NC(=O)[C@H](CC(=O)O)NC(=O)CNC(=O)[C@H](CCCNC(=N)N)NC(=O)[C@@H]2CCCN2C1=O [Cyclic peptide 1, KKKG-(Hcy)-IPRGDNFR(Dab(acetyl))A] (H-KKKG[hCys]IPRGDNFR[Dab]A-OH; linker 5-14 via X2) | – | A (The residual rate of the cyclic peptide is 70% or more.) |
| – | < 50 | CC(C)C[C@@H]1NC(=O)[C@@H](NC(=O)CNC(=O)[C@H](CCCCN)NC(=O)[C@H](CCCCN)NC(=O)[C@@H](N)CCCCN)CCSCC(=O)NCC[C@@H](C(=O)N[C@@H](C)C(=O)O)NC(=O)[C@H](CCCNC(=N)N)NC(=O)[C@H](Cc2ccccc2)NC(=O)[C@H]([C@@H](C)O)NC(=O)[C@H](CC(=O)O)NC(=O)CNC(=O)[C@H](CCCNC(=N)N)NC(=O)[C@@H]2CCCN2C1=O [Cyclic peptide 71, KKKG-(Hcy)-LPRGDTFR(Dab(acetyl))A] (H-KKKG[hCys]LPRGDTFR[Dab]A-OH; linker 5-14 via X2) | – | A (The residual rate of the cyclic peptide is 70% or more.) |
| < 50 | – | CC(C)[C@@H]1NC(=O)[C@@H](NC(=O)[C@H](C)NC(=O)[C@H](CCCCN)NC(=O)[C@H](CCCCN)NC(=O)[C@@H](N)CCCCN)CCSCC(=O)NCC[C@@H](C(=O)N[C@@H](C)C(=O)O)NC(=O)[C@H](C)NC(=O)[C@H](Cc2ccccc2)NC(=O)[C@H]([C@@H](C)O)NC(=O)[C@H](CC(=O)O)NC(=O)CNC(=O)[C@H](CCCNC(=N)N)NC(=O)[C@@H]2CCCN2C1=O [Cyclic peptide 108, KKKA-(Hcy)-VPRGDTFA(Dab(acetyl))A] (H-KKKA[hCys]VPRGDTFA[Dab]A-OH; linker 5-14 via X2) | A (The residual rate of the cyclic peptide is 70% or more.) | – |
| < 50 | – | CC(C)[C@@H]1NC(=O)[C@@H](NC(=O)[C@H](CCCCN)NC(=O)[C@H](CCCCN)NC(=O)[C@@H](N)CCCCN)CCNC(=O)CSC[C@@H](C(=O)O)NC(=O)[C@H](C)NC(=O)[C@H](Cc2ccccc2)NC(=O)[C@H]([C@@H](C)O)NC(=O)[C@H](CC(=O)O)NC(=O)CNC(=O)[C@H](CCCNC(=N)N)NC(=O)[C@@H]2CCCN2C1=O [Cyclic peptide 141, KKK(Dab(acetyl))VPRGDTFA(C)] (H-KKK[Dab]VPRGDTFAC-OH; linker 4-13 via X1) | C (The residual rate of the cyclic peptide is 30% or more and less than 50%.) | – |
| < 50 | – | CC(C)[C@@H]1NC(=O)[C@@H](N)CCSCC(=O)NCC[C@@H](C(=O)N[C@@H](CCCCN)C(=O)N[C@@H](CCCCN)C(=O)N[C@@H](CCCCN)C(=O)O)NC(=O)[C@H](C)NC(=O)[C@H](Cc2ccccc2)NC(=O)[C@H]([C@@H](C)O)NC(=O)[C@H](CC(=O)O)NC(=O)CNC(=O)[C@H](CCCNC(=N)N)NC(=O)[C@@H]2CCCN2C1=O [Cyclic peptide 103, (Hcy)-VPRGDTFA(Dab(acetyl))KKK] (H-[hCys]VPRGDTFA[Dab]KKK-OH; linker 1-10 via X2) | A (The residual rate of the cyclic peptide is 70% or more.) | – |

The next lines start with the compound.

| Compound | Kd [2, 3] [nM] | Kd [2, 4] [nM] | Stability (molecule stability, residual rate of the cyclic peptide rank) [1] | Performance evaluation: Stability (residual rate of cyclic peptide after alkali treatment) [1] |
| --- | --- | --- | --- | --- |
| C[C@@H]1NC(=O)[C@H](Cc2ccccc2)NC(=O)[C@H](CO)NC(=O)[C@H](CC(=O)O)NC(=O)CNC(=O)[C@H](CCCNC(=N)N)NC(=O)[C@H]([C@@H](C)O)NC(=O)[C@H]([C@@H](C)O)NC(=O)[C@@H](NC(=O)[C@H](CCCCN)NC(=O)[C@H](CCCCN)NC(=O)[C@@H](N)CCCCN)CCSCC(=O)NCC[C@@H](C(=O)O)NC1=O [Cyclic peptide 157, KKK-(Hcy)-TTRGDSFA(Dab(acetyl))] (H-KKK[hCys]TTRGDSFA[Dab]-OH; linker 4-13 via X2) | < 50 | – | A (The residual rate of the cyclic peptide is 70% or more.) | – |
| CC(C)[C@@H]1NC(=O)[C@@H](NC(=O)CNC(=O)[C@H](CCCCN)NC(=O)[C@H](CCCCN)NC(=O)[C@@H](N)CCCCN)CCSCC(=O)NCC[C@@H](C(=O)N[C@@H](C)C(=O)O)NC(=O)[C@H](C)NC(=O)[C@H](Cc2ccccc2)NC(=O)[C@H]([C@@H](C)O)NC(=O)[C@H](CC(=O)O)NC(=O)CNC(=O)[C@H](CCCNC(=N)N)NC(=O)[C@@H]2CCCN2C1=O [Cyclic peptide 106, KKKG-(Hcy)-VPRGDTFA(Dab(acetyl))A] (H-KKKG[hCys]VPRGDTFA[Dab]A-OH; linker 5-14 via X2) | < 50 | – | A (The residual rate of the cyclic peptide is 70% or more.) | – |
| CC[C@H](C)[C@@H]1NC(=O)[C@@H](NC(=O)CNC(=O)[C@H](CCCCN)NC(=O)[C@H](CCCCN)NC(=O)[C@@H](N)CCCCN)CCNC(=O)CSCC[C@@H](C(=O)N[C@@H](C)C(=O)O)NC(=O)[C@H](CCCNC(=N)N)NC(=O)[C@H](Cc2ccccc2)NC(=O)[C@H]([C@@H](C)O)NC(=O)[C@H](CC(=O)O)NC(=O)CNC(=O)[C@H](CCCNC(=N)N)NC(=O)[C@@H]2CCCN2C1=O [Cyclic peptide 118, KKKG(Dab(acetyl))IPRGDTFR-(Hcy)-A] (H-KKKG[Dab]IPRGDTFR[hCys]A-OH; linker 5-14 via X1) | < 50 | – | A (The residual rate of the cyclic peptide is 70% or more.) | – |
| CC[C@H](C)[C@@H]1NC(=O)[C@@H](NC(=O)[C@H](C)NC(=O)[C@H](CCCCN)NC(=O)[C@H](CCCCN)NC(=O)[C@@H](N)CCCCN)CCSCC(=O)NCC[C@@H](C(=O)N[C@@H](C)C(=O)O)NC(=O)[C@H](CCCNC(=N)N)NC(=O)[C@H](Cc2ccccc2)NC(=O)[C@H]([C@@H](C)O)NC(=O)[C@H](CC(=O)O)NC(=O)CNC(=O)[C@H](CCCNC(=N)N)NC(=O)[C@@H]2CCCN2C1=O [Cyclic peptide 56, KKKA-(Hcy)-IPRGDTFR(Dab(acetyl))A] (H-KKKA[hCys]IPRGDTFR[Dab]A-OH; linker 5-14 via X2) | – | < 50 | – | A (The residual rate of the cyclic peptide is 70% or more.) |
| N=C(N)NCCC[C@@H]1NC(=O)[C@H](Cc2ccc(O)cc2)NC(=O)[C@H](CC(N)=O)NC(=O)[C@H](CC(=O)O)NC(=O)CNC(=O)[C@H](CCCNC(=N)N)NC(=O)[C@@H]2CCCN2C(=O)[C@H](CCC(=O)O)NC(=O)[C@@H](NC(=O)[C@H](CCC(=O)O)NC(=O)[C@H](CCCCN)NC(=O)[C@H](CCCCN)NC(=O)[C@@H](N)CCCCN)CCSCC(=O)NCC[C@@H](C(=O)N[C@@H](CC(=O)O)C(=O)O)NC1=O [Cyclic peptide 39, KKKE-(Hcy)-EPRGDNYR(Dab(acetyl))D] (H-KKKE[hCys]EPRGDNYR[Dab]D-OH; linker 5-14 via X2) | – | < 50 | – | A (The residual rate of the cyclic peptide is 70% or more.) |
| N=C(N)NCCC[C@@H]1NC(=O)[C@H](Cc2ccc(O)cc2)NC(=O)[C@H](CC(N)=O)NC(=O)[C@H](CC(=O)O)NC(=O)CNC(=O)[C@H](CCCNC(=N)N)NC(=O)[C@@H]2CCCN2C(=O)[C@H](CCC(=O)O)NC(=O)[C@@H](NC(=O)[C@H](CCCCN)NC(=O)[C@H](CCCCN)NC(=O)[C@@H](N)CCCCN)CNC(=O)CSCC[C@@H](C(N)=O)NC1=O [Cyclic peptide 52, KKK(Dap(acetyl))EPRGDNYR-(Hcy)] (H-KKK[Dap]EPRGDNYR[hCys]-NH2; linker 4-13 via X1) | – | 50 to 100 | – | B (The residual rate of the cyclic peptide is 50% or more and less than 70%.) |
| CC[C@H](C)[C@@H]1NC(=O)[C@@H](NC(=O)[C@H](CCCCN)NC(=O)[C@H](CCCCN)NC(=O)[C@@H](N)CCCCN)CCSCC(=O)NCC[C@@H](C(=O)N[C@@H](C)C(=O)O)NC(=O)[C@H](CCCNC(=N)N)NC(=O)[C@H](Cc2ccc(O)cc2)NC(=O)[C@H](CC(N)=O)NC(=O)[C@H](CC(=O)O)NC(=O)CNC(=O)[C@H](CCCNC(=N)N)NC(=O)[C@@H]2CCCN2C1=O [Cyclic peptide 26, KKK-(Hcy)-IPRGDNYR(Dab(acetyl))A] (H-KKK[hCys]IPRGDNYR[Dab]A-OH; linker 4-13 via X2) | – | 50 to 100 | – | A (The residual rate of the cyclic peptide is 70% or more.) |
| CC[C@H](C)[C@@H]1NC(=O)[C@@H](NC(=O)CNC(=O)[C@H](CCCCN)NC(=O)[C@H](CCCCN)NC(=O)[C@@H](N)CCCCN)CCNC(=O)CSC(C)(C)[C@@H](C(=O)N[C@@H](C)C(=O)O)NC(=O)[C@H](CCCNC(=N)N)NC(=O)[C@H](Cc2ccccc2)NC(=O)[C@H]([C@@H](C)O)NC(=O)[C@H](CC(=O)O)NC(=O)CNC(=O)[C@H](CCCNC(=N)N)NC(=O)[C@@H]2CCCN2C1=O [Cyclic peptide 133, KKKG(Dab(acetyl))IPRGDTFR-(Pen)-A] (H-KKKG[Dab]IPRGDTFR[Pen]A-OH; linker 5-14 via X1) | 50 to 100 | – | A (The residual rate of the cyclic peptide is 70% or more.) | – |
